Results: the supplement of paper PMC4862054

Legend:
Settings in all cases: incubation time: 72 h
CAL-85-1 [1] = assay: normalised viability (% of control), CellTiter-Blue; higher = more viable cells (100 = DMSO, 0 = benzethonium chloride kill control)
Description: (§1)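 DSRT, CellTiter-Blue viability, 72 h incubation. Signal is normalised to DMSO and benzethonium chloride controls. Value is the normalised response at dose 1.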

MDA-MB-231 [2] = assay: as above
Description: as §1

HCC1143 [3] = assay: as above
Description: as §1

BT-549 [4] = assay: as above
Description: as §1

CAL-120 [5] = assay: as above
Description: as §1

HCC1599 [6] = assay: as above
Description: as §1

HDQ-P1 [7] = assay: as above
Description: as §1

DU-4475 [8] = assay: as above
Description: as §1

MDA-MB-468 [9] = assay: as above
Description: as §1

HCC1937 [10] = assay: as above
Description: as §1

CAL-51 [11] = assay: as above
Description: as §1

MFM-223 [12] = assay: as above
Description: as §1

SK-BR-3 [13] = assay: as above
Description: as §1

MDA-MB-453 [14] = assay: as above
Description: as §1

MDA-MB-436 [15] = assay: as above
Description: as §1

CAL-148 [16] = assay: as above
Description: as §1

BT-474 [17] = assay: as above
Description: as §1

Hs578T [18] = assay: as above
Description: as §1

CAL-85-1 [19] = assay: normalised response (% of control), CellTiter-Glo; higher = more viable cells (100 = DMSO, 0 = benzethonium chloride kill control)
Procedure, shortened: (§2)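 The table gives the normalised signal for a single concentration in each entry. Breast cancer cell lines were seeded (20 µl suspension) into 384-well plates holding compound at 5 concentrations in 10-fold steps over a compound-specific 10,000-fold range and incubated 72 h, then read for CellTox Green fluorescence (485/520 nm) and CellTiter-Glo luminescence. Normalisation on each plate used 0.1 % DMSO (100) and a positive kill control (0).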

MDA-MB-231 [20] = assay: as above
Procedure, shortened: as §2

HCC1143 [21] = assay: as above
Procedure, shortened: as §2

BT-549 [22] = assay: as above
Procedure, shortened: as §2

CAL-120 [23] = assay: as above
Procedure, shortened: as §2

HCC1599 [24] = assay: as above
Procedure, shortened: as §2

HDQ-P1 [25] = assay: as above
Procedure, shortened: as §2

DU-4475 [26] = assay: as above
Procedure, shortened: as §2

MDA-MB-468 [27] = assay: as above
Procedure, shortened: as §2

HCC1937 [28] = assay: as above
Procedure, shortened: as §2

CAL-51 [29] = assay: as above
Procedure, shortened: as §2

MFM-223 [30] = assay: as above
Procedure, shortened: as §2

SK-BR-3 [31] = assay: as above
Procedure, shortened: as §2

MDA-MB-453 [32] = assay: as above
Procedure, shortened: as §2

MDA-MB-436 [33] = assay: as above
Procedure, shortened: as §2

MCF-10A = assay: as above
Procedure, shortened: as §2

CAL-148 [34] = assay: as above
Procedure, shortened: as §2

BT-474 [35] = assay: as above
Procedure, shortened: as §2

Hs578T [36] = assay: as above
Procedure, shortened: as §2

| Compound | normalised viability (CAL-85-1 [1]) [%] | normalised viability (MDA-MB-231 [2]) [%] | normalised viability (HCC1143 [3]) [%] | normalised viability (BT-549 [4]) [%] | normalised viability (CAL-120 [5]) [%] | normalised viability (HCC1599 [6]) [%] | normalised viability (HDQ-P1 [7]) [%] | normalised viability (DU-4475 [8]) [%] | normalised viability (MDA-MB-468 [9]) [%] | normalised viability (HCC1937 [10]) [%] | normalised viability (CAL-51 [11]) [%] | normalised viability (MFM-223 [12]) [%] | normalised viability (SK-BR-3 [13]) [%] | normalised viability (MDA-MB-453 [14]) [%] | normalised viability (MDA-MB-436 [15]) [%] | normalised viability (CAL-148 [16]) [%] | normalised viability (BT-474 [17]) [%] | normalised viability (Hs578T [18]) [%] | normalised response (CAL-85-1 [19]) [%] | normalised response (MDA-MB-231 [20]) [%] | normalised response (HCC1143 [21]) [%] | normalised response (BT-549 [22]) [%] | normalised response (CAL-120 [23]) [%] | normalised response (HCC1599 [24]) [%] | normalised response (HDQ-P1 [25]) [%] | normalised response (DU-4475 [26]) [%] | normalised response (MDA-MB-468 [27]) [%] | normalised response (HCC1937 [28]) [%] | normalised response (CAL-51 [29]) [%] | normalised response (MFM-223 [30]) [%] | normalised response (SK-BR-3 [31]) [%] | normalised response (MDA-MB-453 [32]) [%] | normalised response (MDA-MB-436 [33]) [%] | normalised response (MCF-10A) [%] | normalised response (CAL-148 [34]) [%] | normalised response (BT-474 [35]) [%] | normalised response (Hs578T [36]) [%] |
| --- | --- | --- | --- | --- | --- | --- | --- | --- | --- | --- | --- | --- | --- | --- | --- | --- | --- | --- | --- | --- | --- | --- | --- | --- | --- | --- | --- | --- | --- | --- | --- | --- | --- | --- | --- | --- | --- |
| COc1cc(OC2CCN(C)CC2)ccc1Nc1ncc2c(n1)n(C1CCCC1)c(=O)n2C [AZ 3146] (1 nM) | 114 | 92.2 | 128 | 84.3 | 116 | 126 | 88.3 | 98.8 | 105 | 95.2 | 92.4 | 109 | 107 | 94.3 | 103 | 109 | 98.9 | 89.2 | 99.7 | 102 | 98.9 | 107 | 105 | 125 | 98.4 | 90.9 | 101 | 95.9 | 101 | 98.2 | 98.3 | 112 | 85.8 | 94.2 | 101 | 95.5 | 93.7 |
| CN(C)c1nc(N(C)C)nc(N(C)C)n1 [Altretamine] (1 nM) | 94.8 | 96 | 102 | 93.1 | 88.2 | 86.3 | 116 | 111 | 93.1 | 105 | 105 | 95.1 | 87.6 | 99.1 | 110 | 111 | 112 | 97.3 | 96.4 | 104 | 99.6 | 95 | 97 | 90.2 | 101 | 104 | 101 | 93.1 | 103 | 103 | 108 | 124 | 97.9 | 102 | 96.5 | 106 | 102 |
| COC(=O)c1ccc2c(c1)NC(=O)/C2=C(\Nc1ccc(N(C)C(=O)CN2CCN(C)CC2)cc1)c1ccccc1 [BIBF 1120] (1 nM) | 94.3 | 129 | 95.7 | 119 | 83.6 | 87.2 | 114 | 112 | 108 | 117 | 99.7 | 91.8 | 93.3 | 101 | 114 | 105 | 124 | 109 | – | – | – | – | – | – | – | – | – | – | – | – | – | – | – | – | – | – | – |
